The record followed here is PubChem BioAssay (NCI).

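Dose response: 5 concentrations. Exposure: 48 h. Format: 96-well plates. Endpoint: linear interpolation; highest concentration if not reached. Abbreviation: GI50, concentration required for 50% inhibition of growth. TGI denotes the concentration required for complete inhibition of growth.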

Test systems include A549 NSCLC; BT-549 breast; HS 578T breast; MCF7 breast; MDA-MB-231 breast; PC-3 prostate; RXF 393 renal; SF-295 CNS; SW-620 colon; UO-31 renal.
Assay in all cases: inhibition of tumour cell growth, NCI panel, 48 h

In the case of `Nc1ccc(Cc2ccc(N)c(C(=O)O)c2)cc1C(=O)O`, the TGI with A549 NSCLC, with BT-549 breast, with HS 578T breast, in the assay on MCF7 breast, in the assay with MDA-MB-231 breast and in the assay on PC-3 prostate was over 100 µM each time. Also, the TGI in the assay on RXF 393 renal, in the assay on SF-295 CNS, with SW-620 colon and in the assay on UO-31 renal was over 100 µM throughout.

Regarding `COc1ccc(-n2nc(C(=O)c3ccccc3)c3nn4c(=O)cc(-c5ccccc5)nc4nc32)cc1`, the GI50 was 39.2 µM with A549 NSCLC; 55.1 µM with BT-549 breast; 69.9 µM with HS 578T breast; 30.7 µM in the assay with MCF7 breast; 28.7 µM with MDA-MB-231 breast; 50.5 µM in the assay on PC-3 prostate. Further, the GI50 in the assay on RXF 393 renal is over 100 µM; with SF-295 CNS, 28.9 µM; in the assay with SW-620 colon it was 44.3 µM; in the assay on UO-31 renal it was 28.6 µM. Besides, the TGI in the assay with A549 NSCLC, in the assay with BT-549 breast, in the assay on HS 578T breast, in the assay with MCF7 breast, in the assay on MDA-MB-231 breast and in the assay on PC-3 prostate was over 100 µM in each case. The TGI in the assay on RXF 393 renal is over 100 µM; with SF-295 CNS, 85.2 µM; in the assay on SW-620 colon it was over 100 µM; in the assay on UO-31 renal, over 100 µM.

On to `Cc1c2ccccc2cc2cccc[n+]12`, for which the TGI with A549 NSCLC was over 100 µM; in the assay on BT-549 breast it was over 100 µM; in the assay on HS 578T breast, 73 µM; with MCF7 breast, over 100 µM; in the assay on MDA-MB-231 breast, over 100 µM; with PC-3 prostate it was over 100 µM. The TGI in the assay with RXF 393 renal is over 100 µM; in the assay on SF-295 CNS, over 100 µM; in the assay with SW-620 colon, over 100 µM; in the assay on UO-31 renal, 83.5 µM.

For the compound `COc1ccc2c3c([nH]c2c1)[C@H](C=C(C)C)N1C(=O)[C@@H]2CCCN2C(=O)[C@@H]1C3`, the TGI with A549 NSCLC, with BT-549 breast, with HS 578T breast, in the assay with MCF7 breast, in the assay on MDA-MB-231 breast and with PC-3 prostate was over 100 µM in each case. The TGI with RXF 393 renal, with SF-295 CNS, in the assay with SW-620 colon and in the assay with UO-31 renal was over 100 µM each time.

For `CN(CCc1ccccn1)c1ccc2c(c1)Cc1ccccc1-2`, the TGI was over 100 µM in the assay on A549 NSCLC; 46.8 µM in the assay with BT-549 breast; 9.92 µM in the assay on HS 578T breast; over 100 µM in the assay on MCF7 breast; 21.9 µM in the assay on MDA-MB-231 breast; 23.9 µM with PC-3 prostate. The TGI with RXF 393 renal was over 100 µM; in the assay on SF-295 CNS, 41.1 µM; with SW-620 colon, over 100 µM; with UO-31 renal it was over 100 µM.

Take `Clc1cccc(/C=c2\nc(-c3ccccc3)n3c2nc2ccccc23)c1`: the TGI in the assay on A549 NSCLC, in the assay on BT-549 breast, in the assay with HS 578T breast, in the assay with MCF7 breast, in the assay with MDA-MB-231 breast and in the assay on PC-3 prostate was over 100 µM throughout. Besides, the TGI in the assay on RXF 393 renal, with SF-295 CNS, with SW-620 colon and in the assay on UO-31 renal was over 100 µM throughout.
